According to ChEMBL document CHEMBL1139631, “Inhibition of hydrogen peroxide-induced necrotic cell death with 3-amino-2-indolylmaleimide derivatives” (Bioorg Med Chem Lett, 2005):

What was measured:
Parameters in all cases: scale not given: the % may be the effect or the level left
[1] = molecular target: Protein kinase C delta type (Homo sapiens) (UniProt Q05655); assay: Percentage inhibition of Protein kinase C delta at 50 uM
[2] = molecular target: Protein kinase C beta type (Homo sapiens) (UniProt P05771); assay: Percentage inhibition of Protein kinase C beta 1 at 50 uM
Sequence of Protein kinase C beta type (Homo sapiens) (P05771 2-671 limits assumed): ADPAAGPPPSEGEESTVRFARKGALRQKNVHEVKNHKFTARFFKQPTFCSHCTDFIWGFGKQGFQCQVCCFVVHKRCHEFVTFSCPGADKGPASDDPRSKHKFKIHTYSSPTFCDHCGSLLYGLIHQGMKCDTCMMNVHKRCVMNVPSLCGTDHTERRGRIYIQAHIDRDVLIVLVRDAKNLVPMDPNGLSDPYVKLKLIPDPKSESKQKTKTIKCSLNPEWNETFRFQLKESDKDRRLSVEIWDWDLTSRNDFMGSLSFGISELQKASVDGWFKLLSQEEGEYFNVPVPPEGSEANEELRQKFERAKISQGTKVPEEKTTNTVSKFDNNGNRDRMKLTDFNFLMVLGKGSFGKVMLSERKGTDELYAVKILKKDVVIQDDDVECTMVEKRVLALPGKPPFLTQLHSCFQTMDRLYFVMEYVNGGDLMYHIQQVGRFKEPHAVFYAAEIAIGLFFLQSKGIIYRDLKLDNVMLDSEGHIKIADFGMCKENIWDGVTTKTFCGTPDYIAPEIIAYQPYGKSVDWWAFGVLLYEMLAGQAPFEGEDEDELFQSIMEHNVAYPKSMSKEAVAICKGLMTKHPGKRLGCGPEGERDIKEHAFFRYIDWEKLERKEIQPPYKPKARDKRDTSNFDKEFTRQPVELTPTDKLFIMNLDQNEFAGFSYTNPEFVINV

[3] = molecular target: T1, Protein kinase C epsilon type (Homo sapiens) (UniProt Q02156); assay: Percentage inhibition of Protein kinase C epsilon at 50 uM
T1 sequence (whole entry): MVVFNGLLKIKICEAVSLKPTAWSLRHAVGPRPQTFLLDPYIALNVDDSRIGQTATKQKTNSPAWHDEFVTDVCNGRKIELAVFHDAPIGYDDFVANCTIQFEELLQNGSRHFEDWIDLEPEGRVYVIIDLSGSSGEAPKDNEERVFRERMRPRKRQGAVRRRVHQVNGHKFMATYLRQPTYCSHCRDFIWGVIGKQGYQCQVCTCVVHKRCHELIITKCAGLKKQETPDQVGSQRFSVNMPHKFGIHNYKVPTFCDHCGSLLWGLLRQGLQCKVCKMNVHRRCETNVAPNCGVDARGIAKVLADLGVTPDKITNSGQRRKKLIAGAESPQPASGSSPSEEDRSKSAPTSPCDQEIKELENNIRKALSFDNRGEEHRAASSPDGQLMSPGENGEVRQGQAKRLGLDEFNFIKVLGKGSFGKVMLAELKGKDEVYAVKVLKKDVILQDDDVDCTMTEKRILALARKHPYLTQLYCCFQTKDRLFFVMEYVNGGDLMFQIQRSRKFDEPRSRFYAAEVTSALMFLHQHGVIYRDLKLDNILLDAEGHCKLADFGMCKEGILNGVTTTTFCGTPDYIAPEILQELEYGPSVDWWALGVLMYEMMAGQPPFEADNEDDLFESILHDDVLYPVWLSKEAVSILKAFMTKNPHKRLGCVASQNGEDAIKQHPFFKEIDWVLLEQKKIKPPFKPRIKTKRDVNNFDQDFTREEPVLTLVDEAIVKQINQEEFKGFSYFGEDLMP

[4] = molecular target: Protein kinase C alpha type (Homo sapiens) (UniProt P17252); assay: Percentage inhibition of Protein kinase C alpha at 50 uM
[5] = molecular target: Protein kinase C gamma type (Homo sapiens) (UniProt P05129); assay: Percentage inhibition of Protein kinase C gamma at 50 uM
[6] = molecular target: T2, Protein kinase C zeta type (Homo sapiens) (UniProt Q05513); assay: Percentage inhibition against Protein kinase C zeta at 50 uM
T2 sequence (whole entry): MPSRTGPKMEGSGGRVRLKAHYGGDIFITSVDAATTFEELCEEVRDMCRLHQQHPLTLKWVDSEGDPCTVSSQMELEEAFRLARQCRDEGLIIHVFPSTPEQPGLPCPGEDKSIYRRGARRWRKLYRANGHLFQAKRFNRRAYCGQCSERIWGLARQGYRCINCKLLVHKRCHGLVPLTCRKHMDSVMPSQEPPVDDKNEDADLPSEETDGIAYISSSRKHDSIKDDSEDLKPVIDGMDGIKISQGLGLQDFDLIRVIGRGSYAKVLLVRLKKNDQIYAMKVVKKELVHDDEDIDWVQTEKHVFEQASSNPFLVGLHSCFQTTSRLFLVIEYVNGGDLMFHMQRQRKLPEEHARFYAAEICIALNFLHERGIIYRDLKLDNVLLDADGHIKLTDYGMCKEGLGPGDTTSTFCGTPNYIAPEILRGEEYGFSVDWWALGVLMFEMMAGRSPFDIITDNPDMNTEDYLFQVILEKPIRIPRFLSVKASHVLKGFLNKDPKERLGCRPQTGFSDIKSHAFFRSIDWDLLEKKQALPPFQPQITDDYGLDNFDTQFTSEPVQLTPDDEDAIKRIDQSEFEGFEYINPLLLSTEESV

[7] = molecular target: T3, Serine/threonine-protein kinase D1 (Homo sapiens) (UniProt Q15139); assay: Percentage inhibition of Protein kinase C mu at 50 uM
T3 sequence (whole entry): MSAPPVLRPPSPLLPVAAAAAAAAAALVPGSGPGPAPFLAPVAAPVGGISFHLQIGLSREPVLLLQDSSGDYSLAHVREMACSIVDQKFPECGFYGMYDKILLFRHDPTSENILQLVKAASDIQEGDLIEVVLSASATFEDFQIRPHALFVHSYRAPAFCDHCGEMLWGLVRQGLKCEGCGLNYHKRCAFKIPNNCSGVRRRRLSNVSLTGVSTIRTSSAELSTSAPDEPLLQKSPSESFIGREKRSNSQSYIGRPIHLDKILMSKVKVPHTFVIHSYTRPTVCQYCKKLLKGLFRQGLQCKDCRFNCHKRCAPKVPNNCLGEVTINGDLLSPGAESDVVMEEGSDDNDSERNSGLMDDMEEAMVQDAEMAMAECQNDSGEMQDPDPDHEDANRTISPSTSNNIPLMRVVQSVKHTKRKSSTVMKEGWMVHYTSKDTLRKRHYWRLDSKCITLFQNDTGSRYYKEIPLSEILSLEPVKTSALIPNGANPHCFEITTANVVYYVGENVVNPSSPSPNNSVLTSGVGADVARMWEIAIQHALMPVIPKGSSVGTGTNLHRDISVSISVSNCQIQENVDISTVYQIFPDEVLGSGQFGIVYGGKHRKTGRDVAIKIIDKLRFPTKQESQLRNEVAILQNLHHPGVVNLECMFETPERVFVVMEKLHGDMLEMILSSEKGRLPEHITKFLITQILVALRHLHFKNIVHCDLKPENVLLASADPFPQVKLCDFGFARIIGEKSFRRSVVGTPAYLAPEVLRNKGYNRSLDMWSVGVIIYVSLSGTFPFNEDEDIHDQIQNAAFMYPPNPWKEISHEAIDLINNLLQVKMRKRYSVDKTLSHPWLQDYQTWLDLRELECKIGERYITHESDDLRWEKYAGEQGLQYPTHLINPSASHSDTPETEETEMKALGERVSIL

[8] = molecular target: T4, Protein kinase C iota type (Homo sapiens) (UniProt P41743); assay: Percentage inhibition of Protein kinase C iota at 50 uM
T4 sequence (whole entry): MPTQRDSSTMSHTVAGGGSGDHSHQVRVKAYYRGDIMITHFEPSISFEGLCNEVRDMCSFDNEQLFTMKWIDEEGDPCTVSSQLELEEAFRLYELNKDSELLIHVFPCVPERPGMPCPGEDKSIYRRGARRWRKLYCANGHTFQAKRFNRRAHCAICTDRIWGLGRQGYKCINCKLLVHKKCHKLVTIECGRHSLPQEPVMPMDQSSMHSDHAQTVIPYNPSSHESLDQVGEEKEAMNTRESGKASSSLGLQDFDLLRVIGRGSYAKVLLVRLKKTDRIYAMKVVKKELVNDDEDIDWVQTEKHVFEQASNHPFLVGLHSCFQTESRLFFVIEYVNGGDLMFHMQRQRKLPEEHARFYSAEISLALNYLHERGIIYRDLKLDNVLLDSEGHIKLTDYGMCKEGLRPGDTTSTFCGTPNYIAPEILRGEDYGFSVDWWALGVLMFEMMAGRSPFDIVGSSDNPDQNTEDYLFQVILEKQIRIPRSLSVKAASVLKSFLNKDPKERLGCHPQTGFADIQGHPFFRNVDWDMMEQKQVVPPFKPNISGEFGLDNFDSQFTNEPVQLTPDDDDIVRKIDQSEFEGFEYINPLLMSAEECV

[9] = molecular target: Protein kinase C eta type (Homo sapiens) (UniProt P24723); assay: Percentage inhibition of Protein kinase C eta at 50 uM
Sequence of Protein kinase C eta type (Homo sapiens) (P24723 whole entry): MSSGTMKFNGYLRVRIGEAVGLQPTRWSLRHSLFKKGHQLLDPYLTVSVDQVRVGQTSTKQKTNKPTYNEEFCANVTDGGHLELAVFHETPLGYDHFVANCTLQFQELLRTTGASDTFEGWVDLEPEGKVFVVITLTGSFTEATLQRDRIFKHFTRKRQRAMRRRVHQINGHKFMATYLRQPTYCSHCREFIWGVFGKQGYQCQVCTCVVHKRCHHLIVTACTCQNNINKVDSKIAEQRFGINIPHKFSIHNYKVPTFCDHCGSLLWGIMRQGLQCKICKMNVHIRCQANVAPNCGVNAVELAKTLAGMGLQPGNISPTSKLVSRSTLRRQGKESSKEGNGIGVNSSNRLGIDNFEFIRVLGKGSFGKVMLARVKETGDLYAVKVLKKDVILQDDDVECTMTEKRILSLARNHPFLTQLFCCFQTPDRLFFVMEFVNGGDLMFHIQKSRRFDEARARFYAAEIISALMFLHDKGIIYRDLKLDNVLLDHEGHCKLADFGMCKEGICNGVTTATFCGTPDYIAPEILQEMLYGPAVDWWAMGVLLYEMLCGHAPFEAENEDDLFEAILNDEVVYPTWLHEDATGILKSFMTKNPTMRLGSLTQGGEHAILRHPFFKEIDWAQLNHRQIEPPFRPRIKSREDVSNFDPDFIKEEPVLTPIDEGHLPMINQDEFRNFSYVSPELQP

[10] = molecular target: Protein kinase C theta type (Homo sapiens) (UniProt Q04759); assay: Percentage inhibition of Protein kinase C theta at 50 uM
Sequence of Protein kinase C theta type (Homo sapiens) (Q04759 whole entry, looked up): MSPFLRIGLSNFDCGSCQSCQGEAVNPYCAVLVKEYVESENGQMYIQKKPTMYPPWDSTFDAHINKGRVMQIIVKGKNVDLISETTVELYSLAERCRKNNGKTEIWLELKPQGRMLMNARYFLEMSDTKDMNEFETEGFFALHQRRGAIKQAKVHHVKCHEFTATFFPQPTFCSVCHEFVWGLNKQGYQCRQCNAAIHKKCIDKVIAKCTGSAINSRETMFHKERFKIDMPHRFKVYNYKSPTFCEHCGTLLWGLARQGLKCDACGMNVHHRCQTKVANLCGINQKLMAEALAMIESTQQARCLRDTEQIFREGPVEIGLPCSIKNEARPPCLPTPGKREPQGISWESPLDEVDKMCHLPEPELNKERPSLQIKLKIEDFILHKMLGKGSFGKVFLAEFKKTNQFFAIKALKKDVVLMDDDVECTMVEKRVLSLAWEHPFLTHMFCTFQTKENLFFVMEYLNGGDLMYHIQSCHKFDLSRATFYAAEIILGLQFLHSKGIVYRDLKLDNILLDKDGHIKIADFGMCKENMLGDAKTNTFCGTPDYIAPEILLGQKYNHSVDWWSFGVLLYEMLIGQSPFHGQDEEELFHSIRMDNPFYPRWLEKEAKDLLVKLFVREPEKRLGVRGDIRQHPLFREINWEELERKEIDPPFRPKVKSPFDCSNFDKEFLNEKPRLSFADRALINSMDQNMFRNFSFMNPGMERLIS

[11] = molecular target: Protein kinase C beta type (Homo sapiens) (UniProt P05771); assay: Percentage inhibition of Protein kinase C beta 2 at 50 uM
[12] = molecular target: Ribosomal protein S6 kinase beta-1 (Homo sapiens) (UniProt P23443); assay: Percentage inhibition of Ribosomal protein S6 kinase at 50 uM
Sequence of Ribosomal protein S6 kinase beta-1 (Homo sapiens) (P23443 whole entry, looked up): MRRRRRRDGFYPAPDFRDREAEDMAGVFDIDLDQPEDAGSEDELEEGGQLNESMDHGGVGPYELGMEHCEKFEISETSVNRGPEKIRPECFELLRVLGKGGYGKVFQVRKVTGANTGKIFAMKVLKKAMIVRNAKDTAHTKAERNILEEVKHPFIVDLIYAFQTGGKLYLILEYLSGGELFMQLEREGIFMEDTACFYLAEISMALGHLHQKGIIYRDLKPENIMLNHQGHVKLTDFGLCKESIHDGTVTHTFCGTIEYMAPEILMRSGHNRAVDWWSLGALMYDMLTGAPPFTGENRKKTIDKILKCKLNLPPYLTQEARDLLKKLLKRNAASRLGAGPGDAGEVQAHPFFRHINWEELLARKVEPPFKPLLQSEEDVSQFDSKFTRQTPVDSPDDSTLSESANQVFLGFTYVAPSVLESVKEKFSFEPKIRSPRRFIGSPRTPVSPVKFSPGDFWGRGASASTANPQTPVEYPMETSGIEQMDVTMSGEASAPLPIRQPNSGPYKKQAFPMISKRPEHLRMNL

Sequence of Protein kinase C delta type (Homo sapiens) (Q05655 whole entry, looked up): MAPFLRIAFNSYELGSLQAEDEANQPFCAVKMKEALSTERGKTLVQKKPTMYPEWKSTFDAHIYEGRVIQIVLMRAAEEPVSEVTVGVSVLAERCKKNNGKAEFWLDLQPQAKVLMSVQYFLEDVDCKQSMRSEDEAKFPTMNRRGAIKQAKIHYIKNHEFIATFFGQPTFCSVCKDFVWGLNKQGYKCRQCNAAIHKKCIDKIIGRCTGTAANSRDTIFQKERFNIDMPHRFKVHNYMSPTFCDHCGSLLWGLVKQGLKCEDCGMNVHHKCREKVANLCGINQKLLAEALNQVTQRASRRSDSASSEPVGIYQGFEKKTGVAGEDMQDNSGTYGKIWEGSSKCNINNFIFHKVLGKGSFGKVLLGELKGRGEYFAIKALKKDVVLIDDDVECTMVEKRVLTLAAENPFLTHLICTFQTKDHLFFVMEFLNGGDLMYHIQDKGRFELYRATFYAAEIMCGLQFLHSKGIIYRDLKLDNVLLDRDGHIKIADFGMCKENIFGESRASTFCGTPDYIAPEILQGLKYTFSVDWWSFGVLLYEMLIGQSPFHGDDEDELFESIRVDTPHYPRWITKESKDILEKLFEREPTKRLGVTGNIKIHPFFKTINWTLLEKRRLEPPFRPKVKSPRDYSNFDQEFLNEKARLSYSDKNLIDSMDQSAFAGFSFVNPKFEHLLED

SMILES	Activity [1] [%]	Activity [2] [%]	Activity [3] [%]	Activity [4] [%]	Activity [5] [%]	Activity [6] [%]	Activity [7] [%]	Activity [8] [%]	Activity [9] [%]	Activity [10] [%]	Activity [11] [%]	Activity [12] [%]
CCCCCNC1=C(c2cn(C)c3ccccc23)C(=O)N(C)C1=O	108	84	95	95	115	100	97	96	98	100	106	96
CN1C(=O)C(c2c[nH]c3ccccc23)=C(c2cn(CCCN)c3ccccc23)C1=O	82	78	10	66	85	85	88	87	55	78	84	28
